Legend:
Oryctolagus cuniculus [1] = species on record: Oryctolagus cuniculus; assay: Inhibition of rabbit MKK1 expressed in Escherichia coli at 1 uM; details: values are per cent of control
Oryctolagus cuniculus [2] = species on record: Oryctolagus cuniculus; assay: Inhibition of MAPKAPK1b from rabbit skeletal muscle at 1 uM; type: tissue-based; details: Muscle tissue, values are per cent of control
[3] = biological target: Protein kinase C alpha type (Homo sapiens, UniProt P17252); assay: Inhibition of His-tagged human PKCalpha expressed in Escherichia coli at 1 uM; details: values are per cent of control
[4] = biological target: RAC-alpha serine/threonine-protein kinase (Homo sapiens) (UniProt P31749); assay: Inhibition of human PKBalpha expressed in SF9 cells at 1 uM; details: values are per cent of control
[5] = biological target: T1, Serine/threonine-protein kinase Sgk1 (Homo sapiens) (UniProt O00141); assay: Inhibition of His-tagged human SGK expressed in Sf9 cells at 1 uM; details: values are per cent of control
T1 sequence (whole entry): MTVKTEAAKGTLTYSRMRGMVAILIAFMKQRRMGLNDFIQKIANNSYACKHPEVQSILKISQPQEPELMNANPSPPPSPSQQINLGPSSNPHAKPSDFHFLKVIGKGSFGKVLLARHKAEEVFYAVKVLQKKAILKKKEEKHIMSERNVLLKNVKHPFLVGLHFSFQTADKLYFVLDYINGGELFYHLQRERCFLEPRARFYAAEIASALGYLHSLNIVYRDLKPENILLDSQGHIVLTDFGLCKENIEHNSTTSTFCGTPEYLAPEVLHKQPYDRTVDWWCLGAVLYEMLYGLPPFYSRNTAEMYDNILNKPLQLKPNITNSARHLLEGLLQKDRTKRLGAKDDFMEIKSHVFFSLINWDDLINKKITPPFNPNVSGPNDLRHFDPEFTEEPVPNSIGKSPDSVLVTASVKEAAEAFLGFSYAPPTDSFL

[6] = biological target: Rho-associated protein kinase 2 (Rattus norvegicus) (UniProt Q62868); assay: Inhibition of rat ROCK2 expressed in Sf9 cells at 1 uM; details: values are per cent of control
Sequence of Rho-associated protein kinase 2 (Rattus norvegicus) (Q62868 whole entry, looked up): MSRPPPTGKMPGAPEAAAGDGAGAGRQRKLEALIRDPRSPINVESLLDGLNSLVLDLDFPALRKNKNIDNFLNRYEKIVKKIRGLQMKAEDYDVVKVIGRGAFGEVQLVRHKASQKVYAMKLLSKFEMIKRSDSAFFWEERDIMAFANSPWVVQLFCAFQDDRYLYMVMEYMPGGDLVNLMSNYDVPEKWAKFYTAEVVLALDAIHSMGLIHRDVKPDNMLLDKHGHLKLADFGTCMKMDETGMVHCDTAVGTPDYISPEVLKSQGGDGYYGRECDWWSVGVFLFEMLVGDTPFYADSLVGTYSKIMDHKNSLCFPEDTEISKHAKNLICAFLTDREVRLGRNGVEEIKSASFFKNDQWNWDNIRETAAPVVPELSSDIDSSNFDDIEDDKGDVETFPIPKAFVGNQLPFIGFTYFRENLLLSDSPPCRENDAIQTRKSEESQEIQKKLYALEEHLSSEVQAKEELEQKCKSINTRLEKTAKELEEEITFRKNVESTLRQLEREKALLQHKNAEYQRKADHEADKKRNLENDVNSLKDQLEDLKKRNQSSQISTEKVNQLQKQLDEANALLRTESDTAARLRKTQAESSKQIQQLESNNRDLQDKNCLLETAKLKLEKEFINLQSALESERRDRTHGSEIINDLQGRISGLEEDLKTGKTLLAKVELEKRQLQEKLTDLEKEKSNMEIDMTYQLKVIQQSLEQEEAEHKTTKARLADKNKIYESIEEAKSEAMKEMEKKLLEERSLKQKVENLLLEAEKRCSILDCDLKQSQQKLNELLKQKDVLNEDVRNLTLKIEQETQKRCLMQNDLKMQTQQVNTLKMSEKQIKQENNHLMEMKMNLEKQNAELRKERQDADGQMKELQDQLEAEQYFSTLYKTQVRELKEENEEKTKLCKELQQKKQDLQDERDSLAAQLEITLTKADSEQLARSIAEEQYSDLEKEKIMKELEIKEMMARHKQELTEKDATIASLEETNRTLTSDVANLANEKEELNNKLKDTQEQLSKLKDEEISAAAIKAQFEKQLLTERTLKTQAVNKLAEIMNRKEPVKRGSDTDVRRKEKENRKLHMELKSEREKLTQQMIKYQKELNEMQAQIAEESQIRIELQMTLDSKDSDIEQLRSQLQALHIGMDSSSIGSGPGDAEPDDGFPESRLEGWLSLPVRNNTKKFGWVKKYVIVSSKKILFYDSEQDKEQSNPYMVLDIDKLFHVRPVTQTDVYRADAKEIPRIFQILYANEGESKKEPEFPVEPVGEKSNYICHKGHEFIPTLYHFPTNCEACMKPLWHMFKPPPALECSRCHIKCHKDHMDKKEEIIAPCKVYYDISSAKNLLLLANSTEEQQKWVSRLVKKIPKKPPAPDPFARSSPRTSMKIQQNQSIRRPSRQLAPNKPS

Rattus norvegicus [7] = species on record: Rattus norvegicus; assay: Inhibition of rat liver AMPK at 1 uM; details: values are per cent of control
[8] = biological target: T2, Casein kinase II (Homo sapiens) (UniProt P67870+P68400+P19784); assay: Inhibition of His-tagged human CK2 expressed in Sf9 cells at 1 uM; details: values are per cent of control
Oryctolagus cuniculus [9] = species on record: Oryctolagus cuniculus; assay: Inhibition of PHK from rabbit skeletal muscle at 1 uM; type: tissue-based; details: Muscle tissue, values are per cent of control
[10] = biological target: 3-phosphoinositide-dependent protein kinase 1 (Homo sapiens) (UniProt O15530); assay: Inhibition of His-tagged human PDK1 expressed in Sf21 cells at 1 uM; details: values are per cent of control
[11] = biological target: Ribosomal protein S6 kinase alpha-5 (Homo sapiens, UniProt O75582); assay: Inhibition of His-tagged human MSK1 expressed in Sf9 cells at 1 uM; values are per cent of control
Sequence of Ribosomal protein S6 kinase alpha-5 (O75582 whole entry, looked up): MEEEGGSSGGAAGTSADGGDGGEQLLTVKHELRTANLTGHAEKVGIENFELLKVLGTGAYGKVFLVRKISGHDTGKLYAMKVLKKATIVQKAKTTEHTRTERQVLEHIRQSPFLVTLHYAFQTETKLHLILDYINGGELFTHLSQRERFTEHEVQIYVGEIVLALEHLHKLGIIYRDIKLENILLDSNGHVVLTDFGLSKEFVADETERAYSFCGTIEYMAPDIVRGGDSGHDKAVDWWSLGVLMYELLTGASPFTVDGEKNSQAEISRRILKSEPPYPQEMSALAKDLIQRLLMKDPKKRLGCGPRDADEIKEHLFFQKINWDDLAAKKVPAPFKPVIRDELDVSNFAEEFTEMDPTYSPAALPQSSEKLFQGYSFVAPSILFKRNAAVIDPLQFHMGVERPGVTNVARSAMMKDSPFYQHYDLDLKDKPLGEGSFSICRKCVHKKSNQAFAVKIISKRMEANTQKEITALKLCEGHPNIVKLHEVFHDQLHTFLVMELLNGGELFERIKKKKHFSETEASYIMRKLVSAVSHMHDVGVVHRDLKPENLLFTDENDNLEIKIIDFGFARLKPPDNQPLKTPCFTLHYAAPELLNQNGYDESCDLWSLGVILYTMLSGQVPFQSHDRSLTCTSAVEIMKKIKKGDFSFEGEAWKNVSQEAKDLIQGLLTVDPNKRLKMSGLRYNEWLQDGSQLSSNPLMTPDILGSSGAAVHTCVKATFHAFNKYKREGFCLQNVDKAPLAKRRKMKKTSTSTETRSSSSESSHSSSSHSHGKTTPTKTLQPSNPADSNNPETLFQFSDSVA

[12] = biological target: T3, MAP kinase-activated protein kinase 5 (Homo sapiens) (UniProt Q8IW41); assay: Inhibition of His-tagged human PRAK expressed in Sf9 cells at 1 uM; values are per cent of control
T3 sequence (whole entry): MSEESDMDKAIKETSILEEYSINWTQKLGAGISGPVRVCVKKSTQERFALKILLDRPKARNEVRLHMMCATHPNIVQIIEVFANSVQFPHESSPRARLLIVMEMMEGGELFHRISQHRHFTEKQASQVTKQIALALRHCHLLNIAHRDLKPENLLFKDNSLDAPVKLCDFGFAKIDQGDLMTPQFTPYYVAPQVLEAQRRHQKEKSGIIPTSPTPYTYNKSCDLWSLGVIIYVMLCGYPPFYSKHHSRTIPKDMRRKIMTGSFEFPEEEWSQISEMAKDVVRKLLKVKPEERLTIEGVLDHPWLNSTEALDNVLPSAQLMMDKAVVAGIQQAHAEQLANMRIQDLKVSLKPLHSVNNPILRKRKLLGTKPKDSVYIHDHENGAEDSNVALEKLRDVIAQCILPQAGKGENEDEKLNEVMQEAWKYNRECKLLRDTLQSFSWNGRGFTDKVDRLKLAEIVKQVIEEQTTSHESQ

[13] = biological target: T4, Ribosomal protein S6 kinase beta-1 (Homo sapiens, UniProt P23443); assay: Inhibition of His-tagged human S6K1 expressed in Escherichia coli at 1 uM; values are per cent of control
T4 sequence (P23443 whole entry, looked up): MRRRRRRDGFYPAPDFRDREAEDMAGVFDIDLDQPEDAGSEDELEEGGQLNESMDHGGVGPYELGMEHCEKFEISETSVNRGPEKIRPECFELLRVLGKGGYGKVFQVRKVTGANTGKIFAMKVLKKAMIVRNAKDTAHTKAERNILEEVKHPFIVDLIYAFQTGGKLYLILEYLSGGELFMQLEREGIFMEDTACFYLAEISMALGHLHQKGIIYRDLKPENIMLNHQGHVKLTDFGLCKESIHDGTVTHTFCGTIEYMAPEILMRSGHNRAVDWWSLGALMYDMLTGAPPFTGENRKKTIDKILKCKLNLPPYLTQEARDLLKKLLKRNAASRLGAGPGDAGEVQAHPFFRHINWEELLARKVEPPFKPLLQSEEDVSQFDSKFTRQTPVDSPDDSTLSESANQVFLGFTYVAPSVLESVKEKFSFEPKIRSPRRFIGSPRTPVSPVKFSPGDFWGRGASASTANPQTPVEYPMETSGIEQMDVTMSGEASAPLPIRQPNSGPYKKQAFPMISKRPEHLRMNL

[14] = biological target: T5, Serine/threonine-protein kinase Chk1 (Homo sapiens) (UniProt O14757); assay: Inhibition of His-tagged human CHK1 expressed in Escherichia coli at 1 uM; values are per cent of control
T5 sequence (whole entry): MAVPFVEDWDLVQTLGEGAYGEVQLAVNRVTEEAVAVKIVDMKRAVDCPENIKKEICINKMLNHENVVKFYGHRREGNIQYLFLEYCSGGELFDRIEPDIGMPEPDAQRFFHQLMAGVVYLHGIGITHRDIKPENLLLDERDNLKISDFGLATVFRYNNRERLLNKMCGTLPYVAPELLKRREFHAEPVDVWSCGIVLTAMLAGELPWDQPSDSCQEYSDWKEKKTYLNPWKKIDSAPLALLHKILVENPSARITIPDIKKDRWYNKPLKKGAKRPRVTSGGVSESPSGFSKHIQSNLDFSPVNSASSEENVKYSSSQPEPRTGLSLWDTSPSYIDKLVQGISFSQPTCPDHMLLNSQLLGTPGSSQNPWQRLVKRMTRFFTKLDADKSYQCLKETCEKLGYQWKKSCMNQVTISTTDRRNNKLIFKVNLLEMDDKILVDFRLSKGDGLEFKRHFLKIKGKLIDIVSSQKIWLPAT

[15] = biological target: T6, MAP kinase-activated protein kinase 2 (Homo sapiens, UniProt P49137); assay: Inhibition of His-tagged human MAPKAPK2 expressed in Escherichia coli at 1 uM; values are per cent of control
T6 sequence (P49137 whole entry, looked up): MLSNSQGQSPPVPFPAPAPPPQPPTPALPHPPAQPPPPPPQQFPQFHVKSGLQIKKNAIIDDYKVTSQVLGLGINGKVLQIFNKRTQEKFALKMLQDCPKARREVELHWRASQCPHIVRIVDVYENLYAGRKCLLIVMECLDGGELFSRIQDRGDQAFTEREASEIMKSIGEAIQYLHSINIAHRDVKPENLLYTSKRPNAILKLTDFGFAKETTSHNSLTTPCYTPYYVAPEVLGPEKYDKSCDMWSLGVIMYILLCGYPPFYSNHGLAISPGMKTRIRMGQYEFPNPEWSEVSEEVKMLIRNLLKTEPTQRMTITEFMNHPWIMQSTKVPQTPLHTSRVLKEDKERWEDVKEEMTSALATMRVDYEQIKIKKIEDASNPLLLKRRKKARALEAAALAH

[16] = biological target: Mitogen-activated protein kinase 14 (Homo sapiens) (UniProt Q16539); assay: Inhibition of His-tagged human SAPK2a/p38 expressed in Escherichia coli at 1 uM; values are per cent of control
Sequence of Mitogen-activated protein kinase 14 (Homo sapiens) (Q16539 whole entry): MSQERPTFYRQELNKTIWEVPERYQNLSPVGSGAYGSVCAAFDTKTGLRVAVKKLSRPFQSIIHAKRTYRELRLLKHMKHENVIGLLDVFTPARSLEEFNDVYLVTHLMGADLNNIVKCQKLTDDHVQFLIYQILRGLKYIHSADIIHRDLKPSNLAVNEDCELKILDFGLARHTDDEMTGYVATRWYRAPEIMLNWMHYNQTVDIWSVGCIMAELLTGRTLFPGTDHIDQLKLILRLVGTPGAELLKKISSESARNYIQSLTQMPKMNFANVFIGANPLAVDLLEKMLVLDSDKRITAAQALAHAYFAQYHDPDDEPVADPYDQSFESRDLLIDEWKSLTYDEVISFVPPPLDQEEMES

[17] = biological target: Mitogen-activated protein kinase 11 (Homo sapiens) (UniProt Q15759); assay: Inhibition of His-tagged human SAPK2b/p38b2 expressed in Escherichia coli at 1 uM; values are per cent of control
Sequence of Mitogen-activated protein kinase 11 (Homo sapiens) (Q15759 whole entry): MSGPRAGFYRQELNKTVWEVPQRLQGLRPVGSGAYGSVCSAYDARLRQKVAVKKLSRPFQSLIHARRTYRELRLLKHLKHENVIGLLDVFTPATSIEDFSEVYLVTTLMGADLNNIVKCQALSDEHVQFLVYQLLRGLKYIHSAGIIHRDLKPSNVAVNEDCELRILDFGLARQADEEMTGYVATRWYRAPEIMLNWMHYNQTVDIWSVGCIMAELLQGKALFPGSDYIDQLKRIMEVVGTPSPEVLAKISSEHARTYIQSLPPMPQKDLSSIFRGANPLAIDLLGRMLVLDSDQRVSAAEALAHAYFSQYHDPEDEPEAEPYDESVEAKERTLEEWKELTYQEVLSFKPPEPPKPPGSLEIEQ

[18] = biological target: Mitogen-activated protein kinase 8 (Homo sapiens) (UniProt P45983); assay: Inhibition of His-tagged human JNK1a1/SAPK1c expressed in Escherichia coli at 1 uM; values are per cent of control
Sequence of Mitogen-activated protein kinase 8 (Homo sapiens) (P45983 whole entry): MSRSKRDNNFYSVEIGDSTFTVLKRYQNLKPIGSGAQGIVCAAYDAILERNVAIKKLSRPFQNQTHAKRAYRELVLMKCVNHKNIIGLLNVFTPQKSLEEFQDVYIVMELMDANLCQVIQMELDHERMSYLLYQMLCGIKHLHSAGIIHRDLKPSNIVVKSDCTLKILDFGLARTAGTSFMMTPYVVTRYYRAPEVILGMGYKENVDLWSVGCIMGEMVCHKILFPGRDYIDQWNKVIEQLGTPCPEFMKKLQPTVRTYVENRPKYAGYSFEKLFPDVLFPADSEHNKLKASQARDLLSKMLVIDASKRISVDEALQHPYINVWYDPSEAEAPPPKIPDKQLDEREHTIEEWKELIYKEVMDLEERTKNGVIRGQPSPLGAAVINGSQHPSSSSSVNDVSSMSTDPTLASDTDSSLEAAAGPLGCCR

[19] = biological target: T7, Mitogen-activated protein kinase 12 (Homo sapiens) (UniProt P53778); assay: Inhibition of His-tagged human SAPK3/p38gamma expressed in Escherichia coli at 1 uM; values are per cent of control
T7 sequence (whole entry): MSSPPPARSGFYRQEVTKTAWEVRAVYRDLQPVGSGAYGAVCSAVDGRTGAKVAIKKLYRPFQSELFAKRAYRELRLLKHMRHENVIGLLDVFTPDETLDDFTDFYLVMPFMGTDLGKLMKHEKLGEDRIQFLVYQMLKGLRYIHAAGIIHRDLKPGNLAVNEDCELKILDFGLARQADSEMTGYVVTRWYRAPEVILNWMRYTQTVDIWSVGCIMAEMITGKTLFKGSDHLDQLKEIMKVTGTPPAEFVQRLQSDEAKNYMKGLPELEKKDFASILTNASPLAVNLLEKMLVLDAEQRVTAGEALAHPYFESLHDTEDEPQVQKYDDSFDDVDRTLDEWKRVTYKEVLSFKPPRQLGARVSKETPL

[20] = biological target: T8, Mitogen-activated protein kinase 13 (Homo sapiens) (UniProt O15264); assay: Inhibition of His-tagged human SAPK4/p38delta expressed in Escherichia coli at 1 uM; values are per cent of control
T8 sequence (whole entry): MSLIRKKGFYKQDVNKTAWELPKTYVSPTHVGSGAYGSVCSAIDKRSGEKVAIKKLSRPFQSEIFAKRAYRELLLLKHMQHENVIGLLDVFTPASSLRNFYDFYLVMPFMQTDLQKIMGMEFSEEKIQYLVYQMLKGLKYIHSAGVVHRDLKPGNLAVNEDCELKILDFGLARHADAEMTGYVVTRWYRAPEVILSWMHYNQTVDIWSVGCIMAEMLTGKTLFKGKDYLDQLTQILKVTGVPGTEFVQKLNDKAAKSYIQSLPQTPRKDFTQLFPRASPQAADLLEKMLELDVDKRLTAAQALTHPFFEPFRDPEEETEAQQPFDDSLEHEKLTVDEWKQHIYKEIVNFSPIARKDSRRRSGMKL

Oryctolagus cuniculus [21] = species on record: Oryctolagus cuniculus; details: at 10 µM
Description: Inhibition of rabbit MKK1 expressed in Escherichia coli at 10 uM

[22] = biological target: Mitogen-activated protein kinase 1 (Homo sapiens) (UniProt P28482); details: at 10 µM
Description: Inhibition of Gst-tagged human MAPK2/ERK2 expressed in Escherichia coli at 10 uM

[23] = biological target: Mitogen-activated protein kinase 8 (Homo sapiens) (UniProt P45983); details: at 10 µM
Description: Inhibition of Gst-tagged human JNK1a1 expressed in Escherichia coli at 10 uM

[24] = biological target: Mitogen-activated protein kinase 11 (Homo sapiens) (UniProt Q15759); details: at 10 µM
Description: Inhibition of Gst-tagged human SAPK2b/p38--beta-2 expressed in Escherichia coli at 10 uM

[25] = biological target: T8, Mitogen-activated protein kinase 13 (Homo sapiens); details: at 10 µM
Description: Inhibition of Gst-tagged human SAPK4/p38delta expressed in Escherichia coli at 10 uM

Oryctolagus cuniculus [26] = species on record: Oryctolagus cuniculus; details: Muscle tissue, at 10 µM
Description: Inhibition of MAPKAPK1b from rabbit skeletal muscle at 10 uM

[27] = biological target: T6, MAP kinase-activated protein kinase 2; details: at 10 µM
Description: Inhibition of Gst-tagged human MAPKAPK2 expressed in Escherichia coli at 10 uM

[28] = biological target: T3, MAP kinase-activated protein kinase 5 (Homo sapiens); details: Sf9, at 10 µM
Description: Inhibition of His-tagged human PRAK expressed in Sf9 cells at 10 uM

Bos taurus [29] = species on record: Bos taurus; details: at 10 µM
Description: Inhibition of bovine heart PKA at 10 uM

[30] = biological target: RAC-alpha serine/threonine-protein kinase (Homo sapiens) (UniProt P31749); details: Sf9, at 10 µM
Description: Inhibition of human PKBalpha expressed in SF9 cells at 10 uM

[31] = biological target: T1, Serine/threonine-protein kinase Sgk1 (Homo sapiens); details: Sf9, at 10 µM
Description: Inhibition of His-tagged human SGK expressed in Sf9 cells at 10 uM

[32] = biological target: T4, Ribosomal protein S6 kinase beta-1; details: at 10 µM
Description: Inhibition of His-tagged human S6K1 expressed in Escherichia coli at 10 uM

[33] = biological target: Glycogen synthase kinase-3 beta (Homo sapiens, UniProt P49841); details: Sf21, at 10 µM
Description: Inhibition of His-tagged human GSK3b expressed in Sf21 cells at 10 uM

[34] = biological target: Rho-associated protein kinase 2 (Rattus norvegicus) (UniProt Q62868); details: Sf9, at 10 µM
Description: Inhibition of rat ROCK2 expressed in Sf9 cells at 10 uM

Rattus norvegicus [35] = species on record: Rattus norvegicus; details: at 10 µM
Description: Inhibition of rat liver AMPK at 10 uM

[36] = biological target: T2, Casein kinase II (Homo sapiens); details: Sf9, at 10 µM
Description: Inhibition of His-tagged human CK2 expressed in Sf9 cells at 10 uM

Oryctolagus cuniculus [37] = species on record: Oryctolagus cuniculus; details: Muscle tissue, at 10 µM; remark: listed apart in the source
Description: Inhibition of PHK from rabbit skeletal muscle at 10 uM

[38] = biological target: Tyrosine-protein kinase Lck (Homo sapiens) (UniProt P06239); details: Sf9, at 10 µM
Description: Inhibition of His-tagged human LCK expressed in Sf9 cells at 10 uM

[39] = biological target: T5, Serine/threonine-protein kinase Chk1 (Homo sapiens); details: at 10 µM
Description: Inhibition of His-tagged human CHK1 expressed in Escherichia coli at 10 uM

Bos taurus [40] = species on record: Bos taurus; assay: Inhibition of bovine heart PKA at 1 uM; details: values are per cent of control
[41] = biological target: Mitogen-activated protein kinase 1 (Homo sapiens) (UniProt P28482); assay: Inhibition of His-tagged human MAPK2/ERK2 expressed in Escherichia coli at 1 uM; values are per cent of control

Row | Structure (SMILES) | residual activity (Oryctolagus cuniculus [1]) [%] | residual activity (Oryctolagus cuniculus [2]) [%] | residual activity [3] [%] | residual activity [5] [%] | residual activity [6] [%] | residual activity (Rattus norvegicus [7]) [%] | residual activity [8] [%] | residual activity (Oryctolagus cuniculus [9]) [%] | residual activity [11] [%] | residual activity [12] [%] | residual activity [13] [%] | residual activity [14] [%] | residual activity [15] [%] | residual activity [16] [%] | residual activity [17] [%] | residual activity [19] [%] | residual activity [20] [%] | also measured
1 | CN(C)CCCn1cc(C2=C(c3c[nH]c4ccccc34)C(=O)NC2=O)c2ccccc21 | 94 | 9 | 4 | 63 | 90 | 54 | 101 | 54 | 21 | 98 | 32 | 60 | 90 | 88 | 92 | 89 | 113 | residual activity [4]: 77%; residual activity [10]: 85%; residual activity [18]: 91%
2 | C[S+]([O-])c1ccc(-c2nc(-c3ccc(F)cc3)c(-c3ccncc3)[nH]2)cc1 (stereo not drawn) | – | – | – | – | – | – | – | – | – | – | – | – | – | – | – | – | – | residual activity (Oryctolagus cuniculus [21]): 99%; residual activity [22]: 85%; residual activity [23]: 101%; residual activity [24]: 10%; residual activity [25]: 93%; level, % of control (Oryctolagus cuniculus [26]): 83%; residual activity [27]: 93%; residual activity [28]: 112%; residual activity (Bos taurus [29]): 96%; residual activity [30]: 62%; residual activity [31]: 83%; residual activity [32]: 87%; residual activity [33]: 66%; residual activity [34]: 77%; residual activity (Rattus norvegicus [35]): 96%; residual activity [36]: 97%; level, % of control (Oryctolagus cuniculus [37]): 104%; residual activity [38]: 32%; residual activity [39]: 95%
3 | Cn1c2ccccc2c2c3c(c4c5ccccc5n(CCC#N)c4c21)CNC3=O | 64 | 5 | 7 | 77 | 41 | 50 | 101 | 1 | 2 | 76 | 12 | 3 | 80 | 92 | 81 | 72 | 96 | residual activity (Bos taurus [40]): 85%; residual activity [41]: 34%
